Experimental data from paper PMC3591338, “Kinetics of Isomerization and Inversion of Aspartate 58 of αA-Crystallin Peptide Mimics under Physiological Conditions” (PLoS ONE, 2013).
Where a SMILES comes first, the peptide text is derived from it.

Assay: Heating experiments: succinimide formation (dehydration) from Asp isomer peptides
Format: physicochemical
Conditions: chemical stability, PBS pH 7.4, 70°C, RP-HPLC peak areas, 215 nm
Experimental: To determine the rate constant for the conversion the Asp isomers to succinimides in the T6 peptide, the T6-Lα, T6-Lβ, T6-Dα and T6-Dβ peptides were dissolved in PBS (pH7.4) and were incubated at 50, 60, 70, 80, and 90°C for 0.4–31 days.
After the incubation of the 4 isomeric peptides, these peptides were subjected to HPLC. Since the four isomeric T6 peptides are clearly separated by RP-HPLC chromatography, we can measure the relative amounts of the peptides produced by the incubation from the peak areas of the 4 isomeric peptides in the chromatogram. The results are as follows: [drawing 11] (4 - 1) [drawing 12] (4 - 2) [drawing 13] (4 - 3) [drawing 14] (4 - 4) where [L-α-Asp]%, [L-β-Asp]%, [D-α-Asp]%, and [D-β-Asp]% are relative amounts (%) of L-α-Asp, L-β-Asp, D-α-Asp and D-β-Asp, and [L-α-Asp], [L-β-Asp], [D-α-Asp] and [D-β-Asp] represent the concentration of L-α-Asp, L-β-Asp, D-α-Asp and D-β-Asp respectively, which are calculated from the peak area in the RP-HPLC chromatogram. We plotted the relative amounts against incubation time. Subsequently, we drew fitted curves for this plot as follows:f1(t) for L-α-Asp, f2(t) for L-β-Asp, f3(t) for D-α-Asp, f4(t) for D-β-Asp.
The rate constants of the conversion of the peptide isomers can be expressed as follows: [drawing 15] (5 - 1) [drawing 16] (5 - 2) [drawing 17] (5 - 3) [drawing 18] (5 - 4) where [L-succinimide]% and [D-succinimide]% represent the relative amounts of L-succinimide and D-succinimide as a percentage, t is time (day), k1 is the rate constant for the conversion of L-α-Asp to L-succinimide (day^−1), k2 is the rate constant for the conversionof L-succinimide to L-α-Asp (day^−1), k3 is the rate constant for the conversion of L-β-Asp to L-succinimide (day^−1), k4 is the rate constant for the conversion of L-succinimide to L-β-Asp (day^−1), k5 is the rate constant for the conversion of D-α-Asp to D-succinimide (day^−1), k6 is the rate constant for the conversion of D-succinimide to D-α-Asp (day^−1), k7 is the rate constant for the conversion of D-β-Asp to D-succinimide (day^−1), k8 is the rate constant for the conversion of D-succinimide to D-β-Asp (day^−1), and f1’(t), f2’(t), f3’(t) and f4’(t) are derivatives of f1(t), f2(t), f3(t) and f4(t). At t = 0 day, [L-α-Asp]% and [L-succinimide]% are 100% and 0% respectively, therefore, Eq. (5-1) can be expressed as: […]
We determined k1, k3, k5 and k7 at five temperatures (50, 60, 70, 80 and 90°C) by using Eq. (6-1), (6-2), (6-3), (6-4). The Arrhenius equation shown below gives the activation energy of the degradation reaction. [drawing 23] […] From Eq. (7), we calculated k1, k3, k5 and k7 at 37°C using k1, k3, k5 and k7 from five temperatures (50, 60, 70, 80 and 90°C).

amount of peptide remaining after 10 days of incubation at 70°C	SMILES
40%	CC[C@H](C)[C@H](NC(=O)CNC(=O)[C@H](CO)NC(=O)[C@@H](CC(=O)O)NC(=O)[C@H](CC(C)C)NC(=O)[C@@H](NC(=O)[C@@H](N)[C@@H](C)O)C(C)C)C(=O)N[C@@H](CO)C(=O)N[C@@H](CCC(=O)O)C(=O)N[C@H](C(=O)N[C@@H](CCCNC(=N)N)C(=O)O)C(C)C [T6-Dα] (HELM PEPTIDE1{T.V.L.[dD].S.G.I.S.E.V.R}$$$$V2.0)
more than 80%	CC[C@H](C)[C@H](NC(=O)CNC(=O)[C@H](CO)NC(=O)C[C@@H](NC(=O)[C@H](CC(C)C)NC(=O)[C@@H](NC(=O)[C@@H](N)[C@@H](C)O)C(C)C)C(=O)O)C(=O)N[C@@H](CO)C(=O)N[C@@H](CCC(=O)O)C(=O)N[C@H](C(=O)N[C@@H](CCCNC(=N)N)C(=O)O)C(C)C [T6-Dβ] (HELM PEPTIDE1{T.V.L.[O=C(O)[C@@H](CC(=O)[*:2])N[*:1]].S.G.I.S.E.V.R}$$$$V2.0)
30%	CC[C@H](C)[C@H](NC(=O)CNC(=O)[C@H](CO)NC(=O)[C@H](CC(=O)O)NC(=O)[C@H](CC(C)C)NC(=O)[C@@H](NC(=O)[C@@H](N)[C@@H](C)O)C(C)C)C(=O)N[C@@H](CO)C(=O)N[C@@H](CCC(=O)O)C(=O)N[C@H](C(=O)N[C@@H](CCCNC(=N)N)C(=O)O)C(C)C [T6-Lα] (H-TVLDSGISEVR-OH)
more than 80%	CC[C@H](C)[C@H](NC(=O)CNC(=O)[C@H](CO)NC(=O)C[C@H](NC(=O)[C@H](CC(C)C)NC(=O)[C@@H](NC(=O)[C@@H](N)[C@@H](C)O)C(C)C)C(=O)O)C(=O)N[C@@H](CO)C(=O)N[C@@H](CCC(=O)O)C(=O)N[C@H](C(=O)N[C@@H](CCCNC(=N)N)C(=O)O)C(C)C [T6-Lβ] (HELM PEPTIDE1{T.V.L.[O=C(O)[C@H](CC(=O)[*:2])N[*:1]].S.G.I.S.E.V.R}$$$$V2.0)
